Measured values: US20050090529A1, “3,5 Disubstituted indazole compounds with nitrogen-bearing 5-membered heterocycles, pharmaceutical compositions, and methods for mediating or inhibiting cell proliferation” (PFIZER INC, priority 2003, published 2005)

tested on: Cyclin-dependent kinase; test: Cyclin-dependent kinase inhibition, % inhibition at 10 nM (library Examples 99-270); format: biochemical; settings: 10 nM compound
Description: Cyclin-dependent kinase activity was measured by quantifying the enzyme-catalyzed, time-dependent incorporation of radioactive phosphate from [^32P]ATP or [^33P]ATP into a protein substrate. Unless noted otherwise, assays were performed in 96-well plates in a total volume of 50 μL, in the presence of 10 mM HEPES (N-[2-hydroxyethyl]piperazine-N′-[2-ethanesulfonic acid]) (pH 7.4), 10 mM MgCl2, 25 μM adenosine triphosphate (ATP), 1 mg/mL ovalbumin, 5 μg/mL leupeptin, 1 mM dithiothreitol, 10 mM beta-glycerophosphate, 0.1 mM sodium vanadate, 1 mM sodium fluoride, 2.5 mM ethylene glycol-bis(β-aminoethyl ethKer)-N,N,N′N′-tetraacetic acid (EGTA), 2% (v/v) dimethylsulfoxide, and 0.03-0.4 μCi [^32/33P]ATP per reaction. Reactions were initiated with enzyme, incubated at 30° C., and terminated after 20 minutes by the addition of ethylenediaminetetraacetic acid (EDTA) to 250 mM. The phosphorylated substrate was then captured on a nitrocellulose or phosphocellulose membrane using a 96-well filtration manifold, and unincorporated radioactivity was removed by repeated washing with 0.85% phosphoric acid. Radioactivity was quantified by exposing the dried membranes to a phosphorimager.
Results of assays performed on compounds, which include the specific examples described above are provided in Examples 99-274 above, and in Table 1 below. Unless indicated otherwise in a particular entry, the units and assays used are as indicated in the applicable column of the table.

Row | Structure (SMILES) | % Inhib @ 10 nM [%]
1 | CCNCc1cncc(-c2ccc3[nH]nc(-c4ncc(C(=O)NCC5CCCCC5)[nH]4)c3c2)c1C [Example 166, N-(cyclohexylmethyl)-2-(5-{5-[(ethylamino)methyl]-4-methylpyridin-3-yl}-1H-indazol-3-yl)-1H-imidazole-5-carboxamide] | 73
2 | CCNCc1cncc(-c2ccc3[nH]nc(-c4ncc(C(=O)NCCc5cc(OC)c(O)c(OC)c5)[nH]4)c3c2)c1C [Example 167] | 28
3 | CCNCc1cncc(-c2ccc3[nH]nc(-c4ncc(C(=O)N5CCN(CCOC)CC5)[nH]4)c3c2)c1C [Example 169, ethyl({5-[3-(5-{[4-(2-methoxyethyl)piperazin-1-yl]carbonyl}-1H-imidazol-2-yl)-1H-indazol-5-yl]-4-methylpyridin-3-yl}methyl)amine] | 37
4 | CCNCc1cncc(-c2ccc3[nH]nc(-c4ncc(C(=O)N5CCC(CNC(=O)C(F)(F)F)CC5)[nH]4)c3c2)c1C [Example 170, N-[(1-{[2-(5-{5-[(ethylamino)methyl]-4-methylpyridin-3yl}-1H-indazol-3-yl)-1H-imidazol-5-yl]carbonyl}piperidin-4-yl)methyl]-2,2,2-trifluoroacetamide] | 29
5 | CCNCc1cncc(-c2ccc3[nH]nc(-c4ncc(C(=O)N5CCC(C(=O)c6ccccc6)CC5)[nH]4)c3c2)c1C [Example 171, (1-{[2-(5-{5[(ethylamino)methyl]-4-methylpyridin-3-yl}-1H-indazol-3-yl)-1H-imidazol-5-yl]carbonyl}piperidin-4-yl)(phenyl)methanone] | 65
6 | CCNCc1cncc(-c2ccc3[nH]nc(-c4ncc(C(=O)NC(CO)CCSC)[nH]4)c3c2)c1C (stereo not drawn) [Example 172] | 36
7 | CCNCc1cncc(-c2ccc3[nH]nc(-c4ncc(C(=O)N[C@H](CO)Cc5ccc(O)cc5)[nH]4)c3c2)c1C [Example 173] | 45
8 | CCNCc1cncc(-c2ccc3[nH]nc(-c4ncc(C(=O)NCCCSC)[nH]4)c3c2)c1C [Example 174, 2-(5-{5-[(ethylamino)methyl]-4-methylpyridin-3-yl}-1H-indazol-3-yl)-N-[3-(methylthio)propyl]1H-imidazole-5-carboxamide] | 41
9 | CCNCc1cncc(-c2ccc3[nH]nc(-c4ncc(C(=O)N(CC)CCOC)[nH]4)c3c2)c1C [Example 175, N-ethyl-2-(5-{5-[(ethylamino)methyl]-4-methylpyridin-3-yl}-1H-indazol-3-yl)-N-(2-methoxyethyl)-1H-imidazole-5-carboxamide] | 68
10 | CCNCc1cncc(-c2ccc3[nH]nc(-c4ncc(C(=O)N[C@H](C(=O)NC)[C@@H](C)O)[nH]4)c3c2)c1C [Example 176, 2-(5-{5-[(ethylamino)methyl]-4-methylpyridin-3-yl}-1H-indazol-3-yl)-N-{(1S,2R)-2-hydroxy-1-[(methylamino)carbonyl]propyl}-1H-imidazole-5-carboxamide] | 59
11 | CCNCc1cncc(-c2ccc3[nH]nc(-c4ncc(C(=O)N5CCC(CO)CC5)[nH]4)c3c2)c1C [Example 177, (1-{[2-(5-{5-[(ethylamino)methyl]-4-methylpyridin-3-yl}-1H-indazol-3-yl)-1H-imidazol-5-yl]carbonyl}piperidin-4-yl)methanol] | 63
12 | CCNCc1cncc(-c2ccc3[nH]nc(-c4ncc(C(=O)N(C)CC)[nH]4)c3c2)c1C [Example 178, N-ethyl-2-(5-{5-[(ethylamino)methyl]-4-methylpyridin-3-yl}-1H-indazol-3-yl)-N-methyl-1H-imidazole-5-carboxamrde] | 73
13 | CCNCc1cncc(-c2ccc3[nH]nc(-c4ncc(C(=O)N5CCCN(C(C)=O)CC5)[nH]4)c3c2)c1C [Example 179, {[5-(3-(5-[(4-acetyl-1,4-diazepan-1-yl)carbonyl]-1H-imidazol-2-yl]-1H-indazol-5-yl)-4-methylpyridin-3-yl]methyl}ethylamine] | 53
14 | CCNCc1cncc(-c2ccc3[nH]nc(-c4ncc(C(=O)N5CCN(CCCN6CCOCC6)CC5)[nH]4)c3c2)c1C [Example 180] | 22
15 | CCNCc1cncc(-c2ccc3[nH]nc(-c4ncc(C(=O)N5CCN(Cc6ccc(OC)cc6)CC5)[nH]4)c3c2)c1C [Example 181, ethyl({5-[3-(5-{[4-(4-methoxybenzyl)piperazin-1-yl]carbonyl}1H-imidazol-2-yl)-1H-indazol-5-yl]-4-methylpyridin-3-yl}methyl)amine] | 57
16 | CCNCc1cncc(-c2ccc3[nH]nc(-c4ncc(C(=O)N5CCN(CC(=O)N(C)C)CC5)[nH]4)c3c2)c1C [Example 182] | 40
17 | CCNCc1cncc(-c2ccc3[nH]nc(-c4ncc(C(=O)N5CCCC(c6nc7ccccc7[nH]6)C5)[nH]4)c3c2)c1C (stereo not drawn) [Example 183, ({5-[3-(5-{[3-(1H-benzimidazol-2-yl)piperidin-1-yl]carbonyl}-1H-imidazol-2-yl)-1H-indazol-5-yl]-4-methylpyridin-3-yl}methyl)ethylamine] | 42
18 | CCNCc1cncc(-c2ccc3[nH]nc(-c4ncc(C(=O)NCC5CCNCC5)[nH]4)c3c2)c1C [Example 184] | 21
19 | CCNCc1cncc(-c2ccc3[nH]nc(-c4ncc(C(=O)N[C@@H](CO)Cc5c[nH]c6ccccc56)[nH]4)c3c2)c1C [Example 185, 2-(5-{5-[(ethylamino)methyl]-4-methylpyridin-3-yl}-1H-indazol-3-yl)-N-[(1R)-2-hydroxy-1-(1H-indol-3-ylmethyl)ethyl]-1H-imidazole-5-carboxamide] | 52
20 | CCNCc1cncc(-c2ccc3[nH]nc(-c4ncc(C(=O)N5C[C@@H]6C[C@H]5CO6)[nH]4)c3c2)c1C [Example 186, ethyl{[4-methyl-5-(3-{5-[(1S,4S)-2-oxa-5-azabicyclo[2.2.1]hept-5-ylcarbonyl]-1H-imidazol-2-yl)-1H-indazol-5-yl)pyridin-3-yl]methyl}amine] | 61
21 | CCNCc1cncc(-c2ccc3[nH]nc(-c4ncc(C(=O)N5CC6C[C@H]5CN6)[nH]4)c3c2)c1C [Example 187] | 44
22 | CCNCc1cncc(-c2ccc3[nH]nc(-c4ncc(C(=O)NCc5ccc(C(F)(F)F)nc5)[nH]4)c3c2)c1C [Example 188, 2-(5-{5-[(ethylamino)methyl]-4-methylpyridin-3-yl}-1H-indazol-3-yl)-N-{(6-(trifluoromethyl)pyridin-3-yl]methyl}-1H-imidazole-5-carboxamide] | 41
23 | CCNCc1cncc(-c2ccc3[nH]nc(-c4ncc(C(=O)NCCCc5c[nH]cn5)[nH]4)c3c2)c1C [Example 189, 2-(5-{5-[(ethylamino)methyl]-4-methylpyridin-3-yl}-1H-indazol-3-yl)-N-[3-(1H-imidazol-4-yl)propyl]-1H-imidazole-5-carboxamide] | 59
24 | CCNCc1cncc(-c2ccc3[nH]nc(-c4ncc(C(=O)N(C)C)[nH]4)c3c2)c1C [Example 190, 2-(5-{5-[(ethylamino)methyl}-4-methylpyridin-3-yl}-1H-indazol-3-yl)-N,N-dimethyl-1H-imidazole-5-carboxamide] | 76
25 | CCNCc1cncc(-c2ccc3[nH]nc(-c4ncc(C(=O)N5CCC(c6cccc(O)c6)CC5)[nH]4)c3c2)c1C [Example 191, 3-(1-{[2-(5-{5-[(ethylamino)methyl]-4-methylpyridin-3-yl}-1H-indazol-3-yl)-1H-imidazol-5-yl]carbonyl}piperidin-4-yl)phenol] | 74
26 | CCNCc1cncc(-c2ccc3[nH]nc(-c4ncc(C(=O)NCCC5CCN(Cc6ccccc6)CC5)[nH]4)c3c2)c1C [Example 192, N-[2-(1-benzylpiperidin-4-yl)ethyl]-2-(5-{5-[(ethylamino)methyl]-4-methylpyridin-3-yl}-1H-indazol-3-yl)-1H-imidazole-5-carboxamide] | 30
27 | CCNCc1cncc(-c2ccc3[nH]nc(-c4ncc(C(=O)N5C[C@@H]6[C@@H](N)[C@@H]6C5)[nH]4)c3c2)c1C [Example 193] | 52
28 | CCNCc1cncc(-c2ccc3[nH]nc(-c4ncc(C(=O)NCc5ccc(C(=O)OC)cc5)[nH]4)c3c2)c1C [Example 194, methyl-4-[({[2-(5-{5-[(ethylamino)methyl]-4-methylpyridin-3-yl}-1H-indazol-3-yl)-1H-imidazol-5-yl]carbonyl}amino)methyl]benzoate] | 65
29 | CCNCc1cncc(-c2ccc3[nH]nc(-c4ncc(C(=O)N5CCCC5c5cccc6ccccc56)[nH]4)c3c2)c1C (stereo not drawn) [Example 195, ethyl({4-methyl-5-(3-(5-{[2-(1-naphthyl)pyrrolidin-1-yl]carbonyl}-1H-imidazol-2-yl)-1 H-indazol-5-yl]pyridin-3-yl]methyl)amine] | 32
30 | CCNCc1cncc(-c2ccc3[nH]nc(-c4ncc(C(=O)N5CCC(Oc6ccccc6)CC5)[nH]4)c3c2)c1C [Example 196, ethyl{[4-methyl-5-(3-{5-[(4-phenoxypiperidin-1-yl)carbonyl]-1H-imidazol-2-yl]-1H-indazol-5-yl)pyridin-3-yl]methyl}amine] | 71
